From patent publication US9776995B2, “Bicyclic sulfonamide compounds as sodium channel inhibitors” (AMGEN INC., priority 2013, dated 2017)

target: Nav 1.7 (Homo sapiens (Human), UniProt Q15858); test: Nav 1.7 in vitro PX assay (PatchXpress whole cell voltage clamp); format: cell-based; details: not given;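 also: holding potential set for 20 to 50% inactivation, sodium current evoked by a 20 ms step to −10 mV, peak current inhibition read after compound exposure, 3–5 cells per concentration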
Sequence (Q15858 whole entry): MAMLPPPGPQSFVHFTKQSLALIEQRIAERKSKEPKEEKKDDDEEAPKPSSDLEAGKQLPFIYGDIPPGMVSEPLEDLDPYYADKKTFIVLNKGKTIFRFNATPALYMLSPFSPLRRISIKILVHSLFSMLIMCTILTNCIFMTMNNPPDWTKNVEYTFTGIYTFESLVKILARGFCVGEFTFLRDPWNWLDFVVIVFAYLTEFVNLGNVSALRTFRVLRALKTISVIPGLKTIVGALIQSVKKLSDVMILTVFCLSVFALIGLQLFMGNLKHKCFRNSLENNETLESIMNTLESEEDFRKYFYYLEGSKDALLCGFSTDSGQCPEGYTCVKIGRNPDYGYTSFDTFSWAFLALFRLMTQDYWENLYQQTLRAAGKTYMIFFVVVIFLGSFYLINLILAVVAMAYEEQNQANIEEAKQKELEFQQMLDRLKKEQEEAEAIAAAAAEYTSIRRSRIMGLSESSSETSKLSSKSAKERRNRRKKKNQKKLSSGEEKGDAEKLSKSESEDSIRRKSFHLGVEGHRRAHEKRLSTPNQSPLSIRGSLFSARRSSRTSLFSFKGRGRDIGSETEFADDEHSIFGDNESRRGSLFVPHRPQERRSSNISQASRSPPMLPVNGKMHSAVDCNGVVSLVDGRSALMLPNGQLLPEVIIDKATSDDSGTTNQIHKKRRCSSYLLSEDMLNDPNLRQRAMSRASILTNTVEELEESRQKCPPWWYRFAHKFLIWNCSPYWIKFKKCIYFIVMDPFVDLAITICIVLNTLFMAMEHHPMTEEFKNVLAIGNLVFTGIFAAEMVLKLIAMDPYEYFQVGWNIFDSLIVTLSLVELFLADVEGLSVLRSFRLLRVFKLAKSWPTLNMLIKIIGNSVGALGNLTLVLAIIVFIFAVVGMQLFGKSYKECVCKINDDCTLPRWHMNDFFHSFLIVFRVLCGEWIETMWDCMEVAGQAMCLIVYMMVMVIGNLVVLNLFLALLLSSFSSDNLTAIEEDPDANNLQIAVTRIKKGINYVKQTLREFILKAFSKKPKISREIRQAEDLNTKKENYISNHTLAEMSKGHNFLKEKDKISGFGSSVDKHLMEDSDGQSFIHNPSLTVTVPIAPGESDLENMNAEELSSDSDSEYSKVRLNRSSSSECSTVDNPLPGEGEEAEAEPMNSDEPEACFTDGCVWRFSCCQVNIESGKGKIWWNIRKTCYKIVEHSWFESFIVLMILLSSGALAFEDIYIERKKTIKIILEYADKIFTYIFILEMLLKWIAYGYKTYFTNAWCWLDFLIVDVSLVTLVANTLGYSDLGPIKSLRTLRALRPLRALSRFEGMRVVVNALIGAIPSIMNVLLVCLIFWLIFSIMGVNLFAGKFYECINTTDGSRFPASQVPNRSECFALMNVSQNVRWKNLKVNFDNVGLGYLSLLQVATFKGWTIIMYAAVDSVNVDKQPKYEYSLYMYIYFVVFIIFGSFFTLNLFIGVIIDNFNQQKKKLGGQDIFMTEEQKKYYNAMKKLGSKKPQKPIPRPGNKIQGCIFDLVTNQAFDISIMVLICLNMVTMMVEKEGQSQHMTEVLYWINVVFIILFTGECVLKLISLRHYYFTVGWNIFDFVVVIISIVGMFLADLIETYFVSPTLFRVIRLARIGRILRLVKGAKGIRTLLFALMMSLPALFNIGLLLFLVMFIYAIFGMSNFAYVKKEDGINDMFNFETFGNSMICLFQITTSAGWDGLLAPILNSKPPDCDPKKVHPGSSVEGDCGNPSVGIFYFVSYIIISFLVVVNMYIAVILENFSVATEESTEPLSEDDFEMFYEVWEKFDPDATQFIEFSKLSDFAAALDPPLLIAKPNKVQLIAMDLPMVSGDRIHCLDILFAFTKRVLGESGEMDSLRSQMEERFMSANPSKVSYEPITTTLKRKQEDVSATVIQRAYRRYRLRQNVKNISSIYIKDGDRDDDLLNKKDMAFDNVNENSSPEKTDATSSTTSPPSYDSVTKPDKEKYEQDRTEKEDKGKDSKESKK

SMILES | IC50
COc1cc(C(F)(F)F)ccc1C1c2ccc(S(=O)(=O)Nc3ncns3)cc2CCN1C(C)=O (stereo not drawn) [Example 51, 2-ACETYL-1-(2-METHOXY-4-(TRIFLUOROMETHYL)PHENYL)-N-(1,2,4-THIADIAZOL-5-YL)-1,2,3,4-TETRAHYDROISOQUINOLINE-6-SULFONAMIDE] | 225 nM
COc1cc(C(F)(F)F)c(Cl)cc1-c1ncnc2cc(S(=O)(=O)Nc3ccon3)ccc12 [Example 59, 4-(5-CHLORO-2-METHOXY-4-(TRIFLUOROMETHYL)PHENYL)-N-(ISOXAZOL-3-YL)QUINAZOLINE-7-SULFONAMIDE] | 182 nM
COc1cc(-c2cccc(C(F)(F)F)c2)c(C#N)cc1-c1nccc2cc(S(=O)(=O)Nc3ncccn3)ccc12 [Example 373, 1-(2-cyano-5-methoxy-3′-(trifluoromethyl)-[1,1′-biphenyl]-4-yl)-N-(pyrimidin-2-yl)isoquinoline-6-sulfonamide] | 57 nM

same assay, conditions: HEK 293 cells stably transfected with human Nav1.7; PatchXpress; partially inactivated state

SMILES | IC50
COc1cc(-c2cccc(F)c2)c(F)cc1-c1nc(Cl)cc2cc(S(=O)(=O)Nc3ccon3)ccc12 [Example 393, 3-CHLORO-1-(2,3′-DIFLUORO-5-METHOXY-4-BIPHENYLYL)-N-3-ISOXAZOLYL-6-ISOQUINOLINESULFONAMIDE] | 157 nM
COc1cc(-c2cccc(F)c2)c(Cl)cc1-c1c(O)cnc2cc(S(=O)(=O)Nc3ccon3)ccc12 (atropisomer, axis not shown; (M)) [Example 337, (M)-4-(2-chloro-3′-fluoro-5-methoxy-[1,1′-biphenyl]-4-yl)-3-hydroxy-N-(isoxazol-3-yl)quinoline-7-sulfonamide] | 71 nM
COc1cc(-c2cccc(F)c2)c(Cl)cc1-c1c(C)cnc2cc(S(=O)(=O)Nc3ccon3)ccc12 (atropisomer, axis not shown; (P)) [Example 331, (P)-4-(2-chloro-3′-fluoro-5-methoxy-[1,1′-biphenyl]-4-yl)-N-(isoxazol-3-yl)-3-methylquinoline-7-sulfonamide] | 10500 nM
COc1cc(-c2cc(F)ccc2F)c(C)cc1-c1ncnc2cc(S(=O)(=O)Nc3ccon3)ccc12 [Example 564, 4-(2′,5′-difluoro-5-methoxy-2-methyl-4-biphenylyl)-N-3-isoxazolyl-7-quinazolinesulfonamide] | 94 nM
COc1cc(-c2cccc(F)c2)c(Cl)cc1-c1ncnc2cc(S(=O)(=O)Nc3ccsn3)ccc12 [Example 361, 4-(2-chloro-3′-fluoro-5-methoxy-[1,1′-biphenyl]-4-yl)-N-(isothiazol-3-yl)quinazoline-7-sulfonamide] | 369 nM
COc1cc(-c2ccc(Cl)c(C)c2)c(Cl)cc1-c1nccc2cc(S(=O)(=O)Nc3nncs3)ccc12 [Example 379, 1-(2,4′-dichloro-5-methoxy-3′-methyl-4-biphenylyl)-N-1,3,4-thiadiazol-2-yl-6-isoquinolinesulfonamide] | 14 nM
COc1cc(-c2cccc(Cl)c2)c(F)cc1-c1cn(C)c(=O)c2cc(S(=O)(=O)Nc3ccon3)ccc12 [Example 344, 4-(3′-chloro-2-fluoro-5-methoxy-[1,1′-biphenyl]-4-yl)-N-(isoxazol-3-yl)-2-methyl-1-oxo-1,2-dihydroisoquinoline-7-sulfonamide] | 49 nM
COc1cc(-c2cccc(F)c2F)c(C)cc1-c1ncnc2cc(S(=O)(=O)Nc3ccon3)ccc12 [Example 562, 4-(2′,3′-difluoro-5-methoxy-2-methyl-4-biphenylyl)-N-3-isoxazolyl-7-quinazolinesulfonamide] | 90 nM
COc1cc(-c2cccc(F)c2)c(Cl)cc1-c1c(O)cnc2cc(S(=O)(=O)Nc3ccon3)ccc12 (atropisomer, axis not shown; (P)) [Example 338, (P)-4-(2-chloro-3′-fluoro-5-methoxy-[1,1′-biphenyl]-4-yl)-3-hydroxy-N-(isoxazol-3-yl)quinoline-7-sulfonamide] | 41 nM
COc1cc(-c2cccc(Cl)c2)c(F)cc1-c1ncnc2cc(S(=O)(=O)Nc3ncccn3)ccc12 [Example 315, 4-(3′-chloro-2-fluoro-5-methoxy-4-biphenylyl)-N-2-pyrimidinyl-7-quinazolinesulfonamide] | 48 nM
COc1cc(-c2cccc(C(F)(F)F)c2)c(C#N)cc1-c1nccc2cc(S(=O)(=O)Nc3ncc(F)cn3)ccc12 [Example 374, 1-(2-Cyano-5-methoxy-3′-(trifluoromethyl)-[1,1′-biphenyl]-4-yl)-N-(5-fluoropyrimidin-2-yl)isoquinoline-6-sulfonamide] | 94 nM
COc1cc(-c2cccc(F)c2)c(Cl)cc1-c1c(C)nnc2cc(S(=O)(=O)Nc3ccon3)ccc12 (atropisomer, axis not shown; (M)) [Example 441, (M)-4-(2-chloro-3′-fluoro-5-methoxy-[1,1′-biphenyl]-4-yl)-N-(isoxazol-3-yl)-3-methylcinnoline-7-sulfonamide] | 52 nM
COc1cc(-c2cccc(F)c2)c(Cl)cc1-c1c(=O)n(C)cc2cc(S(=O)(=O)Nc3ccon3)ccc12 [Example 402, 4-(2-CHLORO-3′-FLUORO-5-METHOXY-[1,1′-BIPHENYL]-4-YL)-N-(ISOXAZOL-3-YL)-2-METHYL-3-OXO-2,3-DIHYDROISOQUINOLINE-7-SULFONAMIDE] | 39 nM
COc1cc(-c2cc(Cl)ccc2F)c(C)cc1-c1ncnc2cc(S(=O)(=O)Nc3ccon3)ccc12 [Example 557, 4-(5′-chloro-2′-fluoro-5-methoxy-2-methyl-4-biphenylyl)-N-3-isoxazolyl-7-quinazolinesulfonamide] | 56 nM
CCc1nnc2cc(S(=O)(=O)Nc3ccon3)ccc2c1-c1cc(Cl)c(-c2cccc(F)c2)cc1OC (atropisomer, axis not shown; (P)) [Example 444, (P)-4-(2-chloro-3′-fluoro-5-methoxy-[1,1′-biphenyl]-4-yl)-3-ethyl-N-(isoxazol-3-yl)cinnoline-7-sulfonamide] | 1160 nM
COc1cc(-c2cc(C)cc(C)c2)c(F)cc1-c1ncnc2cc(S(=O)(=O)Nc3ccon3)ccc12 [Example 536, 4-(2-fluoro-5-methoxy-3′,5′-dimethyl-4-biphenylyl)-N-3-isoxazolyl-7-quinazolinesulfonamide] | 51 nM
COc1cc(-c2cccc(C(F)(F)F)c2)c(F)cc1-c1c2ccc(S(=O)(=O)Nc3ccon3)cc2cc(=O)n1C [Example 546, 1-(2-fluoro-5-methoxy-3′-(trifluoromethyl)-4-biphenylyl)-N-3-isoxazolyl-2-methyl-3-oxo-2,3-dihydro-6-isoquinolinesulfonamide] | 29 nM

The next lines start with the values.

IC50 | SMILES
40 nM | COc1cc(F)cc(-c2cc(OC)c(-c3nccc4cc(S(=O)(=O)Nc5ccon5)ccc34)cc2F)c1 [Example 316, 1-(2,3′-difluoro-5,5′-dimethoxy-4-biphenylyl)-N-3-isoxazolyl-6-isoquinolinesulfonamide]
479 nM | COc1cc(F)c(-c2ccc(F)nc2)cc1-c1nccc2cc(S(=O)(=O)Nc3ccon3)ccc12 [Example 497, 1-(4-fluoro-5-(6-fluoro-3-pyridinyl)-2-methoxyphenyl)-N-3-isoxazolyl-6-isoquinolinesulfonamide]
52 nM | COc1cc(-c2cc(F)cc(C(F)F)c2)c(F)cc1-c1nccc2cc(S(=O)(=O)Nc3ccon3)ccc12 [Example 362, 1-(3′-(difluoromethyl)-2,5′-difluoro-5-methoxy-[1,1′-biphenyl]-4-yl)-N-(isoxazol-3-yl)isoquinoline-6-sulfonamide]

same assay, conditions: PatchXpress (PX)

IC50 | SMILES
222 nM | COc1cc(-c2cccc(F)c2)c(Cl)cc1-c1nccc2cc(S(=O)(=O)Nc3ncco3)ccc12 [Example 257, 1-(2-chloro-3′-fluoro-5-methoxy-4-biphenylyl)-N-1,3-oxazol-2-yl-6-isoquinolinesulfonamide]
224 nM | COc1cc(C(F)(F)F)c(Cl)cc1-c1nccc2cc(S(=O)(=O)Nc3ccon3)ccc12 [Example 249, 1-(5-chloro-2-methoxy-4-(trifluoromethyl)phenyl)-N-3-isoxazolyl-6-isoquinolinesulfonamide]
118 nM | COc1cc(-c2ccc(Cl)c(C)c2)c(C)cc1-c1nccc2cc(S(=O)(=O)Nc3ccon3)ccc12 [Example 253, 1-(4′-chloro-5-methoxy-2,3′-dimethyl-4-biphenylyl)-N-3-isoxazolyl-6-isoquinolinesulfonamide]
431 nM | COc1cc(C(F)F)c(C2CC2)cc1-c1nccc2cc(S(=O)(=O)Nc3ccon3)ccc12 [Example 251, 1-(5-cyclopropyl-4-(difluoromethyl)-2-methoxyphenyl)-N-3-isoxazolyl-6-isoquinolinesulfonamide]

same assay, conditions: in-vitro Nav 1.7 PX (PatchXpress)

SMILES | IC50
COc1cc(-c2cc(C)cc(F)c2)c(F)cc1-c1ncnc2cc(S(=O)(=O)Nc3ccon3)ccc12 [Example 301, 4-(2,3′-difluoro-5-methoxy-5′-methyl-4-biphenylyl)-N-3-isoxazolyl-7-quinazolinesulfonamide] | 32 nM
COc1cc(-c2cc(C)c(Cl)c(F)c2)c(F)cc1-c1ncnc2cc(S(=O)(=O)Nc3ccon3)ccc12 [Example 295, 4-(4′-chloro-2,3′-difluoro-5-methoxy-5′-methyl-4-biphenylyl)-N-3-isoxazolyl-7-quinazolinesulfonamide] | 59 nM

The next lines start with the values.

IC50 | SMILES
480 nM | COc1cc(-c2ccc(OCC(F)(F)F)nc2)ccc1-c1nccc2cc(S(=O)(=O)Nc3ccon3)ccc12 [Example 303, N-3-isoxazolyl-1-(2-methoxy-4-(6-(2,2,2-trifluoroethoxy)-3-pyridinyl)phenyl)-6-isoquinolinesulfonamide]
77.5 nM | COc1cc(-c2ccc(Cl)c(C)c2)ccc1-c1nccc2cc(S(=O)(=O)Nc3ccon3)ccc12 [Example 288, 1-(4′-chloro-3-methoxy-3′-methyl-4-biphenylyl)-N-3-isoxazolyl-6-isoquinolinesulfonamide]
37.5 nM | COc1cc(-c2cc(C)cc(Cl)c2)c(C)cc1-c1nccc2cc(S(=O)(=O)Nc3ccon3)ccc12 [Example 283, 1-(3′-chloro-5-methoxy-2,5′-dimethyl-4-biphenylyl)-N-3-isoxazolyl-6-isoquinolinesulfonamide]
98.6 nM | COc1cc(-c2ccc(C)c(Cl)c2)c(C)cc1-c1nccc2cc(S(=O)(=O)Nc3ccon3)ccc12 [Example 282, 1-(3′-chloro-5-methoxy-2,4′-dimethyl-4-biphenylyl)-N-3-isoxazolyl-6-isoquinolinesulfonamide]
